Test results reported in the NIST ThermoML archive (doi:10.1021/je034162x).

Conditions: 101.33 kPa, Liquid, Hot wire method

C1=CCCC1 [cyclopentene]
Conditions | thermal conductivity [W/m/K] | thermal diffusivity [m2/s]
258.72 K | 0.1491 | –
258.94 K | 0.1489 | –
259.1 K | 0.1488 | –
259.64 K | – | 1.13e-07
260.25 K | – | 1.12e-07
260.69 K | – | 1.12e-07
276.99 K | 0.1409 | –
277.23 K | 0.1407 | –
277.4 K | 0.1406 | –
277.93 K | – | 1.05e-07
278.57 K | – | 1.05e-07
279.02 K | – | 1.05e-07
294.92 K | 0.133 | –
295.16 K | 0.1328 | –
295.33 K | 0.1327 | –
295.88 K | – | 9.78e-08
296.54 K | – | 9.78e-08
296.99 K | – | 9.74e-08
312.58 K | 0.1258 | –
312.84 K | 0.1256 | –
313.02 K | 0.1255 | –
313.55 K | – | 9.09e-08
314.21 K | – | 9.08e-08
314.67 K | – | 9.05e-08

CCc1ccccc1 [ethylbenzene]
Conditions | thermal conductivity [W/m/K] | thermal diffusivity [m2/s]
258 K | 0.1375 | –
258.29 K | 0.1374 | –
258.5 K | 0.1373 | –
259.49 K | – | 9.45e-08
260.41 K | – | 9.43e-08
261.06 K | – | 9.41e-08
277.34 K | 0.1328 | –
277.65 K | 0.1327 | –
277.88 K | 0.1326 | –
278.88 K | – | 9.04e-08
279.84 K | – | 9.02e-08
280.53 K | – | 9.02e-08
295.86 K | 0.1282 | –
296.19 K | 0.128 | –
296.42 K | 0.128 | –
297.44 K | – | 8.66e-08
298.45 K | – | 8.67e-08
299.16 K | – | 8.66e-08
312.38 K | 0.124 | –
312.72 K | 0.1238 | –
312.96 K | 0.1237 | –
313.99 K | – | 8.29e-08
315.01 K | – | 8.28e-08
315.73 K | – | 8.28e-08
329.05 K | 0.1199 | –
329.41 K | 0.1197 | –
329.66 K | 0.1196 | –
330.69 K | – | 7.97e-08
331.74 K | – | 7.96e-08
332.49 K | – | 7.95e-08

C=CCCCC [hex-1-ene]
Conditions | thermal conductivity [W/m/K] | thermal diffusivity [m2/s]
259.93 K | 0.1304 | –
260.19 K | 0.1305 | –
260.47 K | 0.1303 | –
261.24 K | – | 9.12e-08
262.13 K | – | 9.15e-08
263.04 K | – | 9.14e-08
275.98 K | 0.1247 | –
276.28 K | 0.1249 | –
276.6 K | 0.1245 | –
277.38 K | – | 8.63e-08
278.3 K | – | 8.69e-08
279.25 K | – | 8.67e-08
295.84 K | 0.1181 | –
296.26 K | 0.1178 | –
296.53 K | 0.1179 | –
297.34 K | – | 8.25e-08
298.59 K | – | 8.22e-08
299.33 K | – | 8.2e-08
301.27 K | 0.1161 | –
301.73 K | 0.116 | –
301.96 K | 0.1158 | –
302.77 K | – | 8.05e-08
304.08 K | – | 8.06e-08
304.81 K | – | 8.04e-08
314.67 K | 0.1119 | –
315.04 K | 0.1115 | –
315.38 K | 0.1112 | –
316.21 K | – | 7.67e-08
317.27 K | – | 7.71e-08
318.31 K | – | 7.68e-08
329.14 K | 0.1071 | –
329.53 K | 0.107 | –
329.89 K | 0.1068 | –
330.76 K | – | 7.42e-08
331.81 K | – | 7.39e-08
332.96 K | – | 7.4e-08

CC(C)c1ccccc1 [isopropylbenzene]
Conditions | thermal conductivity [W/m/K] | thermal diffusivity [m2/s]
261.13 K | 0.1263 | –
261.33 K | 0.1262 | –
261.48 K | 0.1262 | –
261.85 K | – | 8.45e-08
262.36 K | – | 8.45e-08
262.72 K | – | 8.44e-08
275.03 K | 0.1238 | –
275.24 K | 0.1237 | –
275.4 K | 0.1237 | –
275.75 K | – | 8.18e-08
276.27 K | – | 8.21e-08
276.65 K | – | 8.22e-08
294.11 K | 0.1202 | –
294.32 K | 0.12 | –
294.47 K | 0.1199 | –
294.85 K | – | 7.92e-08
295.35 K | – | 7.86e-08
295.72 K | – | 7.86e-08
312.46 K | 0.1164 | –
312.68 K | 0.1163 | –
312.84 K | 0.1162 | –
313.18 K | – | 7.51e-08
313.72 K | – | 7.54e-08
314.09 K | – | 7.53e-08
329.45 K | 0.1128 | –
329.68 K | 0.1127 | –
329.83 K | 0.1126 | –
330.17 K | – | 7.21e-08
330.7 K | – | 7.21e-08
331.08 K | – | 7.21e-08

CC1CCCC1 [methylcyclopentane]
Conditions | thermal conductivity [W/m/K] | thermal diffusivity [m2/s]
258.71 K | 0.1273 | –
258.96 K | 0.1271 | –
259.11 K | 0.127 | –
259.52 K | – | 9.4e-08
260.16 K | – | 9.37e-08
260.57 K | – | 9.34e-08
277 K | 0.1212 | –
277.24 K | 0.1211 | –
277.41 K | 0.121 | –
277.86 K | – | 8.8e-08
278.49 K | – | 8.85e-08
278.91 K | – | 8.82e-08
294.9 K | 0.1155 | –
295.15 K | 0.1154 | –
295.32 K | 0.1153 | –
295.76 K | – | 8.24e-08
296.37 K | – | 8.25e-08
296.8 K | – | 8.24e-08
312.57 K | 0.1101 | –
312.82 K | 0.11 | –
312.99 K | 0.1099 | –
313.44 K | – | 7.77e-08
314.04 K | – | 7.73e-08
314.46 K | – | 7.71e-08

C=CCCCCCC [oct-1-ene]
Conditions | thermal conductivity [W/m/K] | thermal diffusivity [m2/s]
259.69 K | 0.1354 | –
259.9 K | 0.1353 | –
260.06 K | 0.1353 | –
260.46 K | – | 9.04e-08
261.02 K | – | 9.07e-08
261.42 K | – | 9.09e-08
279.34 K | 0.1294 | –
279.57 K | 0.1294 | –
279.72 K | 0.129 | –
280.08 K | – | 8.39e-08
280.66 K | – | 8.48e-08
281.06 K | – | 8.49e-08
296.88 K | 0.124 | –
297.14 K | 0.124 | –
297.28 K | 0.124 | –
297.65 K | – | 7.98e-08
298.28 K | – | 8e-08
298.61 K | – | 8.02e-08
315.82 K | 0.1185 | –
316.07 K | 0.1186 | –
316.24 K | 0.1186 | –
316.57 K | – | 7.49e-08
317.19 K | – | 7.58e-08
317.61 K | – | 7.61e-08
326.44 K | 0.1155 | –
326.7 K | 0.1156 | –
326.87 K | 0.1156 | –
327.18 K | – | 7.24e-08
327.82 K | – | 7.35e-08
328.26 K | – | 7.38e-08
